The first test concerns Bacillus subtilis 9466. In words: Minimum inhibitory concentration, serial dilution in synthetic bacterial growth medium. Type of test: cell-based. The note with it: 35-37 °C, 16-20 hours, value in parentheses: a higher concentration did not always inhibit growth. The procedure:
(§1) The above fluorinated dipeptides are prepared in sterile concentrated aqueous solutions. Serial dilutions are made to give a range of concentrations of the test substances. Samples of the dilutions are mixed with an appropriate sterile synthetic bacterial growth medium in test tubes. The tubes are then inoculated with an appropriate test organism and incubated at 35°-37° C. for 16-20 hours. […]
Regarding `N[C@H](CF)C(=O)N[C@@H](Cc1ccccc1)C(=O)O` [Example 2, β-fluoro-D-alanyl-L-phenylalanine], the Minimum inhibitory concentration is 3.1.
Regarding `N[C@H](CF)C(=O)N[C@@H](CCC(=O)O)C(=O)O` [Example 3, βF-D-Ala-L-Glu], the Minimum inhibitory concentration was determined as 3.1.
Take `CC(C)C[C@H](NC(=O)[C@H](N)CF)C(=O)O` [Example 4, F-D-Ala-L-Leu]: the Minimum inhibitory concentration came out at 6.2.

The next test relates to Enterococcus 89. Described as above. Type of test: cell-based. As to conditions: 35-37 °C, 16-20 hours. As to the method: as §1
`C[C@H](NC(=O)[C@H](N)CF)C(=O)O` [Example 1, β-fluoro-D-alanyl-L-alanine]: the Minimum inhibitory concentration is given as 200.
For `N[C@H](CF)C(=O)N[C@@H](Cc1ccccc1)C(=O)O` [Example 2, β-fluoro-D-alanyl-L-phenylalanine], the Minimum inhibitory concentration stood at 25.
For the compound `N[C@H](CF)C(=O)N[C@@H](CCC(=O)O)C(=O)O` [Example 3, βF-D-Ala-L-Glu], the Minimum inhibitory concentration is reported as 25.
`CC(C)C[C@H](NC(=O)[C@H](N)CF)C(=O)O` [Example 4, F-D-Ala-L-Leu] gave a Minimum inhibitory concentration of 25.
In turn, `CC(C)(NC(=O)[C@H](N)CF)C(=O)O` [Example 5, βF-D-Ala-Aibu] registered a Minimum inhibitory concentration of 25.
Regarding `CC(C)[C@H](NC(=O)[C@H](N)CF)C(=O)O` [Example 6, βF-D-Ala-L-Val], the Minimum inhibitory concentration was 6.2.

In a further test the test system is Shigella sonnei 9290. Described as above. Type of test: cell-based. As to conditions: 35-37 °C, 16-20 hours, value in parentheses: a higher concentration did not always inhibit growth. The procedure:
as §1
With `CC(C)C[C@H](NC(=O)[C@H](N)CF)C(=O)O` [Example 4, F-D-Ala-L-Leu], the Minimum inhibitory concentration is on record as 800.

A further test deals with E. coli Juhl. Described as above. The test is classed as cell-based. As to conditions: 35-37 °C, 16-20 hours, value in parentheses: a higher concentration did not always inhibit growth. The procedure:
as §1
For the compound `CC(C)C[C@H](NC(=O)[C@H](N)CF)C(=O)O` [Example 4, F-D-Ala-L-Leu], the Minimum inhibitory concentration is on record as 800.
Consider `CC(C)[C@H](NC(=O)[C@H](N)CF)C(=O)O` [Example 6, βF-D-Ala-L-Val], for which the Minimum inhibitory concentration was 800.

In another test the test system is Kleb. pneumonise 8045. The description is as above. The test is classed as cell-based. The note with it: 35-37 °C, 16-20 hours, value in parentheses: a higher concentration did not always inhibit growth. The procedure:
as §1
For the compound `CC(C)C[C@H](NC(=O)[C@H](N)CF)C(=O)O` [Example 4, F-D-Ala-L-Leu], the Minimum inhibitory concentration worked out at 800.
The same measure, in the same setting: then `CC(C)(NC(=O)[C@H](N)CF)C(=O)O` [Example 5, βF-D-Ala-Aibu], with 800; and `CC(C)[C@H](NC(=O)[C@H](N)CF)C(=O)O` [Example 6, βF-D-Ala-L-Val], with 800.

In a further test the test system is Staph. aureus Smith. The description is as above. The test is classed as cell-based. The note with it: 35-37 °C, 16-20 hours, value in parentheses: a higher concentration did not always inhibit growth. The procedure:
as §1
`N[C@H](CF)C(=O)N[C@@H](CCC(=O)O)C(=O)O` [Example 3, βF-D-Ala-L-Glu]: the Minimum inhibitory concentration was found to be 800.
Turning to `CC(C)C[C@H](NC(=O)[C@H](N)CF)C(=O)O` [Example 4, F-D-Ala-L-Leu], the Minimum inhibitory concentration was 800.
For the compound `CC(C)(NC(=O)[C@H](N)CF)C(=O)O` [Example 5, βF-D-Ala-Aibu], the Minimum inhibitory concentration is given as 800.
Still for that read-out and setting: in the case of `CC(C)[C@H](NC(=O)[C@H](N)CF)C(=O)O` [Example 6, βF-D-Ala-L-Val] it was 800.

The test system of a further test is Strep. faecalis 10541. The description is as above. The test is classed as cell-based. As to conditions: 35-37 °C, 16-20 hours, value in parentheses: a higher concentration did not always inhibit growth. As to the method:
as §1
Take `N[C@H](CF)C(=O)N[C@@H](Cc1ccccc1)C(=O)O` [Example 2, β-fluoro-D-alanyl-L-phenylalanine]: the Minimum inhibitory concentration came to 0.78.
The same measure, in the same setting: then `N[C@H](CF)C(=O)N[C@@H](CCC(=O)O)C(=O)O` [Example 3, βF-D-Ala-L-Glu], with 50.
As to `CC(C)C[C@H](NC(=O)[C@H](N)CF)C(=O)O` [Example 4, F-D-Ala-L-Leu], the Minimum inhibitory concentration stood at 3.1.
As to `CC(C)(NC(=O)[C@H](N)CF)C(=O)O` [Example 5, βF-D-Ala-Aibu], the Minimum inhibitory concentration is on record as 800.

A further test has as its system Staph. aureus (Smith). Put plainly: In vivo mouse protection test (CD50, 7-day survival after intraperitoneal infection). The note with it: peptide alone, subcutaneous, e.g. 1 and 5 hours post-infection, mice infected i.p. with 10-100 x LD50 Staph. aureus (Smith). On the set-up: species or system Charles River mice. As to the method: Charles River mice weighing approximately 20 g. each, were infected intraperitoneally with 10-100 times the LD50 of the infecting organism. At predetermined intervals post-infection, e.g., 1 and 5 hours, mice were dosed subcutaneously with graded doses of the new dipeptide, antibiotic and a combination thereof. The number of mice surviving each treatment for 7 days post-infection was observed and the CD50 is calculated. The results using D-cycloserine as an example of the antiobiotic and representative fluorinated dipeptides are shown in Table II, using Staph. aureus (Smith) as the infecting organism. The values are listed in mg./kg.
With `C[C@H](NC(=O)[C@H](N)CF)C(=O)O` [Example 1, β-fluoro-D-alanyl-L-alanine], the “CD50, Peptide” value was 9.4 mg/kg.
Still for that read-out and setting: then `N[C@H](CF)C(=O)N[C@@H](Cc1ccccc1)C(=O)O` [Example 2, β-fluoro-D-alanyl-L-phenylalanine], with 75 to 150 mg/kg.

For the origin of these results see patent US4309342A, “Antibacterial peptides” (Abbott Laboratories, priority 1980, dated 1982).
